Assay results taken from patent US8722849B2, “Polypeptides” (Novo Nordisk A/S, priority 2011, dated 2014).
Converted amounts (≈) assume the structure as drawn. Read-outs that look alike come from different tables or passages of the source. Values belong to the molecule of their own block, whether it stands above or below them. Starred links: 1 amine or outer side, 2 acyl side, 3 side chain; linkers in the order of their positions; H or OH if unused. Positions of bridges follow the written chain, without caps; N, C: chain ends. Non-standard residues stand in square brackets, D forms with d. Residues, ends and D or L forms follow the SMILES beside them. *: point of attachment. C20 diacid = O=C(O)CCCCCCCCCCCCCCCCCCC(=O)*; γGlu = O=C(O)[C@H](CCC(=O)[*:2])N[*:1]; AEEA = NCCOCCOCC(=O)O

What was measured:
[1] = molecular target: T1, human calcitonin receptor (Homo sapiens, UniProt P30988); test: Assay (II)a functional CRE-luciferase assay, human calcitonin receptor; assay type: cell-based
T1 construct: expressed in transfected cells; host or cells: BHK570
T1 sequence (P30988 25-474): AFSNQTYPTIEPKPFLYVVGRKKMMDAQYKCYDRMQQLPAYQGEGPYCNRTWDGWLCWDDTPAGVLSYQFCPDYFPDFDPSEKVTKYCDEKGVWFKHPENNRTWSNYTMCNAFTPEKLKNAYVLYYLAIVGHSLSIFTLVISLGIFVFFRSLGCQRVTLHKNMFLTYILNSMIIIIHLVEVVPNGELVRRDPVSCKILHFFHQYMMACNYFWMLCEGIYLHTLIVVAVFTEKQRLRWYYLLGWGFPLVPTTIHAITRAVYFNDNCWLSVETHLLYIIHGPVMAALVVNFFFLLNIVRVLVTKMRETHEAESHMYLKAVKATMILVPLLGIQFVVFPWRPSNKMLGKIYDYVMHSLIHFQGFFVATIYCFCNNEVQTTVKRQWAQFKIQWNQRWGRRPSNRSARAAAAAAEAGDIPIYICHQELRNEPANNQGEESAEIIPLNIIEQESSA

[2] = Assay (IV) determination of solubility; assay type: physicochemical
Method in brief: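 Eight 100 mM buffers (glycylglycine pH 3.0–5.0, bistrispropane pH 6.0–8.0) each received an equal volume of polypeptide dissolved in water at ~500 nmol/ml. Soluble polypeptide was measured by HPLC following 18 hours at room temperature and centrifugation.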

[3] = molecular target: T2, human amylin receptor (amylin 3(a) receptor: human calcitonin receptor + RAMP-3) (Homo sapiens, UniProt O60896+P30988); test: Assay (II)a functional CRE-luciferase assay, human amylin receptor; assay type: cell-based
T2 construct: expressed in transfected cells; host or cells: BHK570
T2 sequence (P30988 25-474): T1 sequence (P30988 25-474)
T2 sequence (O60896 24-148 partner): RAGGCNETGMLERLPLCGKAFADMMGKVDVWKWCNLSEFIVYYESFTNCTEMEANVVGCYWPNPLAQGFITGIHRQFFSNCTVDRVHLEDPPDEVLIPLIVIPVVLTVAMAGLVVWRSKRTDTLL

[4] = molecular target: T3, rat amylin 3(a) receptor (rat calcitonin(a) receptor + rat RAMP3) (Rattus norvegicus, UniProt P32214+Q9JJ73); test: Assay (II)b functional cAMP FlashPlate assay, rat amylin receptor; assay type: cell-based; settings: Table 11
T3 construct: expressed in transfected cells; host or cells: BHK tk'ts 13
T3 sequence (P32214 25-479 isoform P32214-2 limits assumed): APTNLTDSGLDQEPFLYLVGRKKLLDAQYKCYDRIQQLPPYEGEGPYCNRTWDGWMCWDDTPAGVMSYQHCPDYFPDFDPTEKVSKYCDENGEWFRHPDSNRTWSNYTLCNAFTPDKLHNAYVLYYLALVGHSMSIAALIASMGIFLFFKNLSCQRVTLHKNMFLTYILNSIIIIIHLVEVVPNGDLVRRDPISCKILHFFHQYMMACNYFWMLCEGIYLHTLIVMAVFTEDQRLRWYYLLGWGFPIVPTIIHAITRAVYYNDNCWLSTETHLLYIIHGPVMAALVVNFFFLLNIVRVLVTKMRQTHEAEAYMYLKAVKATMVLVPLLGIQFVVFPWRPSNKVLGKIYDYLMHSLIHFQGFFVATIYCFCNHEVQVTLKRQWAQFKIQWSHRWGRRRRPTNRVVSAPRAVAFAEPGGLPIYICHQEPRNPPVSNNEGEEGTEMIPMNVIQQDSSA
T3 sequence (Q9JJ73 23-147 partner): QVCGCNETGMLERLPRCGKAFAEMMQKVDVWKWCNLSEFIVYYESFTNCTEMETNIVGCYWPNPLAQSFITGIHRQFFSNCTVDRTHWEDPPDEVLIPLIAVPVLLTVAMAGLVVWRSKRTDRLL
Method in brief: (§1)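 cAMP accumulation in transiently transfected BHK tk'ts 13 cells, 100.000 cells/well, expressing rat calcitonin(a) receptor or its RAMP3 co-expression form (amylin 3(a)): 30 min stimulation with IBMX, 24 hours post-transfection. Readout by competition of cellular versus radiolabelled cAMP in FlashPlates, scintillation counted after 3 h.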

[5] = molecular target: T4, rat calcitonin (a) receptor (Rattus norvegicus, UniProt P32214); test: Assay (II)b functional cAMP FlashPlate assay, rat calcitonin receptor; assay type: cell-based; settings: Table 11; read-out: CTa receptor rat EC50
T4 construct: expressed in transfected cells; host or cells: BHK tk'ts 13
T4 sequence (P32214 25-479 isoform P32214-2 limits assumed): T3 sequence (P32214 25-479 isoform P32214-2 limits assumed)
Method in brief: as §1

[6] = Table 7, human calcitonin (CTa) receptor
[7] = pH 7.0, read-out: Solubility pH 7.0
[8] = Table 2, BHK amylin 3(a)-receptor/CRE-luc cells

EC50 [1, 6]: 0.409 nM | solubility at 18 h ([2]; bistrispropane buffer, pH 6, pH 6.0, read-out: Solubility pH 6.0): > 200 µM | solubility at 18 h ([2]; bistrispropane buffer, pH 6.5, pH 6.5, read-out: Solubility pH 6.5): 45 µM (≈ 214 µg/mL) | solubility at 18 h ([2]; bistrispropane buffer, pH 7.5, pH 7.5, read-out: Solubility pH 7.5): 26 µM (≈ 124 µg/mL) | solubility at 18 h ([2]; bistrispropane buffer, pH 8, pH 8.0, read-out: Solubility pH 8.0): 69 µM (≈ 328 µg/mL) | solubility at 18 h ([2]; glycylglycine buffer, pH 3, pH 3.0, read-out: Solubility pH 3.0): > 200 µM | solubility at 18 h ([2]; glycylglycine buffer, pH 4, pH 4.0, 18 hours at room temperature, Table 2, read-out: Solubility pH 4.0): > 200 µM | solubility at 18 h ([2]; glycylglycine buffer, pH 4, pH 4.0, read-out: Solubility pH 4.0): > 200 µM | solubility at 18 h ([2]; glycylglycine buffer, pH 5, pH 5.0, read-out: Solubility pH 5.0): > 200 µM | solubility at 18 h [2, 7]: 9 µM (≈ 42.8 µg/mL) | EC50 [3, 8]: 0.0775 nM | EC50 [4]: 0.082 nM | EC50 [5]: 6.76 nM
SMILES: CC[C@H](C)[C@H](NC(=O)[C@@H]1CCCN1C(=O)CNC(=O)[C@H](Cc1ccccc1)NC(=O)[C@H](CC(N)=O)NC(=O)[C@H](CC(N)=O)NC(=O)[C@H](CO)NC(=O)[C@H](CO)NC(=O)[C@H](Cc1cnc[nH]1)NC(=O)[C@H](CCCNC(=N)N)NC(=O)[C@H](CC(C)C)NC(=O)[C@H](Cc1ccccc1)NC(=O)[C@H](CCC(=O)O)NC(=O)[C@H](C)NC(=O)[C@H](CC(C)C)NC(=O)[C@H](CCCNC(=N)N)NC(=O)[C@H](CCC(N)=O)NC(=O)[C@@H](NC(=O)[C@H](C)NC(=O)[C@@H]1CSSC[C@H](NC(=O)[C@H](Cc2cnc[nH]2)NC(=O)[C@H](Cc2cnc[nH]2)NC(=O)[C@H](Cc2cnc[nH]2)NC(=O)CC[C@H](NC(=O)CCCCCCCCCCCCCCCCCCC(=O)O)C(=O)O)C(=O)N[C@@H](CC(N)=O)C(=O)N[C@@H]([C@@H](C)O)C(=O)N[C@@H](C)C(=O)N[C@@H]([C@@H](C)O)C(=O)N1)[C@@H](C)O)C(=O)N[C@@H](CC(C)C)C(=O)N1CCC[C@H]1C(=O)N1CCC[C@H]1C(=O)N[C@H](C(=O)N[C@@H](CC(N)=O)C(=O)N[C@H](C(=O)NCC(=O)N[C@@H](CO)C(=O)N[C@@H](CC(N)=O)C(=O)N[C@H](C(=O)N[C@@H](Cc1ccc(O)cc1)C(N)=O)[C@@H](C)O)C(C)C)[C@@H](C)O [Example 12, N-alpha-[(S)-4-Carboxy-4-(19-carboxynonadecanoylamino)butyryl]-His-His-[His1,Glu14,Arg17]-pramlintide] ({C20 diacid-γGlu}-HHHCNTATCATQRLAEFLRHSSNNFGPILPPTNVGSNTY-NH2; disulfide 4-9)

EC50 [1, 6]: 0.642 nM | EC50 ([1]; Table 11, read-out: CTa receptor human EC50): 0.642 nM | solubility ([2]; pH 3, pH 3.0, read-out: Solubility pH 3.0): > 200 µM | solubility ([2]; pH 4, pH 4.0, 18 hours at room temperature, Table 2, read-out: Solubility pH 4.0): > 200 µM | solubility ([2]; pH 4, pH 4.0, read-out: Solubility pH 4.0): > 200 µM | solubility ([2]; pH 5, pH 5.0, read-out: Solubility pH 5.0): > 200 µM | solubility ([2]; pH 6, pH 6.0, read-out: Solubility pH 6.0): > 200 µM | solubility at 18 h ([2]; pH 6.5, read-out: Solubility pH 6.5): 124 µM (≈ 630 µg/mL) | Solubility pH 7.0 (μM) ([2]; pH 7.0, 18 hours at room temperature, Table 3): 198 μM | solubility at 18 h ([2]; pH 7.0, Table 8, read-out: Solubility pH 7.0): 198 µM (≈ 1010 µg/mL) | solubility at 18 h [2, 7]: 198 µM (≈ 1010 µg/mL) | solubility ([2]; pH 7.5, pH 7.5, read-out: Solubility pH 7.5): > 200 µM | solubility ([2]; pH 8, pH 8.0, read-out: Solubility pH 8.0): > 200 µM | EC50 [3, 8]: 0.0832 nM | EC50 ([3]; Table 3, BHK amylin 3(a)-receptor/CRE-luc cells): 0.0832 nM | EC50 ([3]; Table 4): 0.0832 nM | EC50 ([3]; Table 5): 0.0832 nM | EC50 ([3]; Table 6, human amylin receptor): 0.0832 nM | EC50 ([3]; Table 7, human amylin receptor): 0.0832 nM | EC50 ([3]; Table 8): 0.0832 nM | EC50 ([3]; Table 11): 0.0832 nM | EC50 [4]: 0.132 nM | EC50 [5]: 1.89 nM
SMILES: CC[C@H](C)[C@H](NC(=O)[C@@H]1CCCN1C(=O)CNC(=O)[C@H](Cc1ccccc1)NC(=O)[C@H](CC(N)=O)NC(=O)[C@H](CC(N)=O)NC(=O)[C@H](CO)NC(=O)[C@H](CO)NC(=O)[C@H](CCCNC(=N)N)NC(=O)[C@H](Cc1cnc[nH]1)NC(=O)[C@H](CC(C)C)NC(=O)[C@H](Cc1ccccc1)NC(=O)[C@H](CCC(=O)O)NC(=O)[C@H](C)NC(=O)[C@H](CC(C)C)NC(=O)[C@H](CCCNC(=N)N)NC(=O)[C@H](CCC(N)=O)NC(=O)[C@@H](NC(=O)[C@H](C)NC(=O)[C@@H]1CSSC[C@H](NC(=O)[C@H](CCCCN)NC(=O)[C@@H](CCCNC(=N)N)NC(=O)[C@@H](CCCNC(=N)N)NC(=O)COCCOCCNC(=O)COCCOCCNC(=O)CC[C@H](NC(=O)CCCCCCCCCCCCCCCCCCC(=O)O)C(=O)O)C(=O)N[C@@H](CC(N)=O)C(=O)N[C@@H]([C@@H](C)O)C(=O)N[C@@H](C)C(=O)N[C@@H]([C@@H](C)O)C(=O)N1)[C@@H](C)O)C(=O)N[C@@H](CC(C)C)C(=O)N1CCC[C@H]1C(=O)N1CCC[C@H]1C(=O)N[C@H](C(=O)N[C@@H](CC(N)=O)C(=O)N[C@H](C(=O)NCC(=O)N[C@@H](CO)C(=O)N[C@@H](CC(N)=O)C(=O)N[C@H](C(=O)N[C@@H](Cc1ccc(O)cc1)C(N)=O)[C@@H](C)O)C(C)C)[C@@H](C)O [Example 37, N-alpha-[2-(2-{2-[2-(2-{2-[(S)-4-Carboxy-4-(19-carboxyheptadecanoylamino)butyrylamino]ethoxy}ethoxy)acetylamino]ethoxy}ethoxy)acetyl]-D-Arg-D-Arg-[Glu14,His17,Arg18]-pramlintide] ({C20 diacid-γGlu-AEEA-AEEA}-[dR][dR]KCNTATCATQRLAEFLHRSSNNFGPILPPTNVGSNTY-NH2; disulfide 4-9)
